In patent EP2620142A1, “Hedgehog signaling pathway involved in energy metabolism” (Max-Planck-Gesellschaft zur Förderung der Wissenschaften …, priority 2012, dated 2013):

Columns and labels:
3T3-L1 adipocytes [1] = assay type: cell-based, Murine
Description: Murine 3T3-L1 preadipocytes (ATCC) were maintained in DMEM containing 10% heat inactivated calf serum (CS) at 37°C and 5% CO2. Two days post-confluence, adipocyte differentiation was induced by treating cells with 0.25 mM 3-Isobutyl-1-methylxanthine (IBMX), 1 µM dexamethasone, 1.74 µM insulin and 5 µM Troglitazone in DMEM containing 10% fetal bovine serum (FBS). After 48 hours, the medium was replaced with DMEM supplemented with 10% FBS, insulin and Troglitazone alone. After an additional 48 hours, cells were switched to DMEM with 10% FBS for the rest of the differentiation process and the medium was changed every other day. Seven days post-induction, differentiated 3T3-L1 1 adipocytes were starved overnight in DMEM containing 1 % Bovine Serum Albumin (BSA) before starting different treatments as indicated in the text.
Differentiated 3T3-L1 adipocytes were starved overnight in DMEM containing 1 % BSA and treated as indicated. NAD^+, NADP^+, NADH, and NADPH were determined using the Enzychrom NAD^+/NADH and the Enzychrom NADP^+/NADPH assay kit, respectively (BioAssay Systems) according to manufacturer's instructions. To measure glucose consumption and lactate production, the Glucose RTU and Lactate RTU kits (Biomerieux) were used according to manufacturer's instruction and normalized to cell number. AMP, ADP and ATP were determined as previously described^51. In brief, cells were washed once with ice cold PBS and proteins were precipitated with 1 % trichloroacetic acid (TCA). Repeated ether washes were used to remove TCA from the aqueous extract phase. Extracts were dried and stored at -80°C until further processing. To determine nucleotide phosphates by reversed-phase HPLC cell extracts were lyophilized for 3 days at -20 °C. Dried samples were dissolved in mobile phase A (60 mM K2HP04 and 40 mM KH2P04, adjusted to pH 7 with 0.1 M KOH). 20 µL were injected into an Agilent 1200 HPLC system (Agilent) and nucleotides were separated by gradient elution from an Agilent Eclipse XDB-C18 4.6 x 150 mm column at a flow rate of 1 mL/min. The gradient was 99% phase A from 0-5 minutes, 99% phase A to 40% A from 5-20 minutes and 99% phase A from 20-32.5 minutes. 100% acetonitrile served as mobile phase B. Eluting nucleotides were monitored on a UV detector at 254 nm. ATP, ADP and AMP standards were used to generate calibration curves for peak quantifications.

AMPK = assay: AMPKAR FRET assay of AMPK activity; assay type: cell-based, Human; conditions: cyclopamine, HEK293 with AMPK-AR reporter
Description: HEK293 cells (ATCC) were grown in DMEM containing 10% FBS. 2 x 10^6 cells were seeded in 10 cm dishes and transfected using the GeneJuice Reagent (Merck) according to manufacturer's instructions. 48 hours after transfection, cells were resuspended in PBS and used for FRET assays.
HEK293 cells transfected with the AMPK-AR construct^40 were resuspended in PBS at a concentration of 10^5 cells/ml. A Synergy 4 microplate reader (BioTeK) was used for measuring FRET signals. In brief, compounds were pipetted into a 96-well plate at the concentrations indicated in the text. Cell suspensions were pre-loaded in the reader to be injected at 10^4 cells/well. The FRET signal was detected using 420/50 nm and 528/20 nm as excitation and emission settings. Baseline values for each well were acquired before injection and subtracted afterwards.

3T3-L1 adipocytes [2] = assay: Calcium flux measurement (FluoForte); assay type: cell-based, Murine
Description: 3T3-L1 cells were cultured and differentiated in black wall/clear bottom 96-well plates (Corning). At day seven post-induction, cells were starved overnight in DMEM containing 1 % BSA and loaded with the calcium dye FluoForte AM (Enzo Lifescience) according to the instructions provided by the manufacturer. Intracellular calcium levels were measured using a Synergy 4 microplate reader (BioTeK). […] Baselines for each well were acquired before injection and subtracted afterwards. Ionomycin and EGTA were injected in concentrations of 1 µM.

C57BL/6J mice [3] = assay: Oral glucose tolerance test (OGTT); assay type: in vivo
Description: (§1) C57BL/6J mice were maintained on a standard rodent chow diet and a 12 hour light: 12 hour dark cycle. Eight week old, over-night fasted C57BL/6J male mice were injected intraperitoneally (i.p.) with vehicle (45% hydroxypropyl-β-cyclodextrin; HBS) or cyclopamine (10 mg/kg). Fifteen minutes after injection, an oral glucose tolerance test (OGTT) was performed by administering 2 g/kg glucose by oral gavage. Tail-vein blood was collected to measure glucose and insulin levels. Insulin was measured using the ultrasensitive insulin ELISA Kit from Mercodia, according to the manufacturer's recommendations. For cyclopamine tolerance tests eight week old C57BL/6J mice were i.p. injected with streptozotocin (STZ, 200 mg/kg body weight) to destroy pancreatic beta-cells. 72 hours later STZ-treated mice were separated into two groups and injected i.p. with either vehicle or 10 mg/kg cyclopamine. All animal experiments were carried out according to an ethical animal license protocol in accordance to the animal protection law and approved by the Regierungspräsidium Freiburg (Tierversuchsvorhaben Registrier-Nr.: G-10/94).

C57BL/6J mice [4] = assay: Glycemic-insulinemic clamp with somatostatin infusion; assay type: in vivo
Description: Indwelling catheters were placed into the left femoral vein and externalised in the interscapular region of 11 week old C57BL/6J mice^17,52. The animals were allowed to recover for 5 days and fasted for 16 hours before the experiment. Somatostatin (SST14 Bachem, Switzerland) was infused at a rate of 1 µg/kg/min and hyperglycemia (12.5 mM) was maintained by variable infusion of 10% glucose. Steady state was maintained for 90 min before cyclopamine injection (2/3 bolus 1/3 infusion; low dose = 1 mg/kg, high-dose = 10 mg/kg), or HBS (Control). Whole blood was sampled from the tail every 10 min during the last hour using a glucometer (AccuCheck Aviva; Roche Diagnostics, Meylan, France).

[5] = tested on: STZ-treated C57BL/6J mice; assay: Cyclopamine tolerance test in STZ-treated mice; assay type: in vivo
Description: as §1

Smoothened = conditions: cyclopamine 100 nM against standard 200 nM SAG; cited from earlier work

**Q.** For `c1cc(-c2cnn3cc(-c4ccc(OCCN5CCCCC5)cc4)cnc23)ccn1` [compound C], which “effect on SAG-induced metabolic rewiring (glucose uptake, lactate production, redox balance)” value (3T3-L1 adipocytes [1]; SAG 200 nM, compound C 10 µM, nifedipine 20 µM, Ptx 100 ng/ml) is on record?
**A.** abrogated all detectable metabolic rewiring effects following SAG stimulation

**Q.** And the “effect on cyclopamine-dependent glucose uptake, lactate production and redox rebalancing” value (3T3-L1 adipocytes [1]; cyclopamine 100 nM, compound C 10 µM, nifedipine 20 µM, Ptx 100 ng/ml)?
**A.** efficiently counteracted

**Q.** Which “NAD+/NADH ratio” value (3T3-L1 adipocytes [1]; cyclopamine 100 nM) does the source give for `CC1=C2C[C@H]3[C@@H](CC=C4C[C@@H](O)CC[C@@]43C)[C@@H]2CC[C@]12O[C@@H]1C[C@H](C)CN[C@H]1[C@H]2C` [cyclopamine, 11-deoxojervine] here?
**A.** augmentation of the NAD^+/NADH ratio

**Q.** And the generation of lactate (3T3-L1 adipocytes [1]; cyclopamine 100 nM)?
**A.** generation of lactate

**Q.** And the glucose uptake (3T3-L1 adipocytes [1]; cyclopamine 100 nM)?
**A.** marked glucose uptake

**Q.** What about the “Ampk sensitive FRET signal” value (AMPK) of the same compound?
**A.** significant Ampk sensitive FRET signal

**Q.** What about the “Ca++ response” value (3T3-L1 adipocytes [2]; cyclopamine) of the same compound?
**A.** rapid and robust Ca^++ response

**Q.** What about the glucose tolerance (C57BL/6J mice [3]; 10 mg/kg i.p. 15 minutes prior to testing, 2 g/kg oral glucose) of the same compound?
**A.** moderate but significant improvement in glucose tolerance

**Q.** What about the “basal and glucose-stimulated insulin secretion” value (C57BL/6J mice [3]; 10 mg/kg i.p. pre-treatment) of the same compound?
**A.** Neither basal nor glucose-stimulated insulin secretion appeared affected

**Q.** What about the “tissue-specific glucose uptake (glucose tracing)” value (C57BL/6J mice [4]; LD 1 mg/kg, HD 10 mg/kg, EDL, Soleus, VL) of the same compound?
**A.** increased glucose-uptake into muscle

**Q.** And the “time to increase in glucose infusion rate” value (C57BL/6J mice [4]; after cyclopamine infusion)?
**A.** 10 to 20 min

**Q.** And the glucose infusion rate (C57BL/6J mice [4]; low dose 1 mg/kg, high dose 10 mg/kg, somatostatin infusion)?
**A.** robust dose-dependent increases in glucose infusion rate

**Q.** What about the glucose clearance ([5]; 10 mg/kg i.p., insulin-deficient mice) of the same compound?
**A.** significant and robust glucose clearance

**Q.** And the “time to glucose clearance” value ([5]; after cyclopamine injection, 10 mg/kg)?
**A.** ~30 min

**Q.** What about the “displacing SAG and blocking canonical signalling” value (Smoothened) of the same compound?
**A.** incapable of displacing standard 200 nM SAG and blocking canonical signalling

**Q.** Which results are given for `O=C(O)CN(CCOCCOCCN(CC(=O)O)CC(=O)O)CC(=O)O` [EGTA]?
**A.** effect on cyclopamine-induced Ca++ response (3T3-L1 adipocytes [2]; EGTA 1 µM): sensitive to extracellular EGTA; effect on SAG- and Shh-induced Ca++ responses (3T3-L1 adipocytes [2]; EGTA 1 µM, extracellular calcium chelator): completely abrogated the SAG-and Shh-induced responses
